Measured values taken from ChEMBL document CHEMBL1155168, “Bound to shock: protection from lethal endotoxemic shock by a novel, nontoxic, alkylpolyamine lipopolysaccharide sequestrant” (Antimicrob Agents Chemother, 2007).
Calls of active or inactive are those of the source. The calls are words filed in the database; no cut-off is given here.

How the values were obtained:
[1] = system: J774.A1; assay: Inhibition of LPS-stimulated nitric oxide production in mouse J774A.1 cells after 16 hrs; type: functional, cell-based
[2] = Inhibition of Pseudomonas aeruginosa lipopolysaccharide-stimulated NF-kappaB induction in HEK-Blue cells assessed as expression of secreted alkaline phosphatase by seAP assay; type: cell-based
[3] = Ex vivo inhibition of Escherichia coli lipopolysaccharide-stimulated IL6 production in human whole blood by multiplexed flow cytometric bead array system; type: tissue-based
[4] = Inhibition of Salmonella enterica serovar Abortus equi lipopolysaccharide-stimulated NF-kappaB induction in HEK-Blue cells assessed as expression of secreted alkaline phosphatase by seAP assay; type: cell-based
[5] = Inhibition of Vibrio cholerae lipopolysaccharide-stimulated NF-kappaB induction in HEK-Blue cells assessed as expression of secreted alkaline phosphatase by seAP assay; type: cell-based
[6] = Inhibition of Escherichia coli 055:B5 lipopolysaccharide-stimulated NF-kappaB induction in HEK-Blue cells assessed as expression of secreted alkaline phosphatase by seAP assay; type: cell-based
[7] = Inhibition of LPS-stimulated NF-kappaB induction in HEK-Blue cells assessed as expression of secreted alkaline phosphatase by seAP assay; type: cell-based
[8] = Inhibition of Escherichia coli O111:B4 lipopolysaccharide-stimulated NF-kappaB induction in HEK-Blue cells assessed as expression of secreted alkaline phosphatase by seAP assay; type: cell-based
[9] = Ex vivo inhibition of Escherichia coli lipopolysaccharide-stimulated TNFalpha production in human whole blood by multiplexed flow cytometric bead array system; type: tissue-based
[10] = Ex vivo inhibition of Escherichia coli lipopolysaccharide-stimulated IL8 production in human whole blood by multiplexed flow cytometric bead array system; type: tissue-based
[11] = system: Mus musculus; assay: Increase in survivality of sc dosed D-galactosamine-primed mouse model of TNF-alpha-induced lethal septic shock; type: functional, organism-based
[12] = system: Mus musculus; assay: Toxicity in mouse at 40 mg/kg/day, sc after 5 days; type: organism-based; parameters: route subcutaneous; settings: in vivo, 120 h
[13] = system: HEK-Blue; assay: Inhibition of ionomycin-stimulated NF-kappaB induction in HEK-Blue cells assessed as expression of secreted alkaline phosphatase by seAP assay; type: functional, cell-based; settings: Homo sapiens
[14] = system: Blood; assay: Ex vivo inhibition of TNF-alpha-stimulated T180/Y182 dual phosphorylation of p38 MAPK in human whole blood by flow cytometry; type: functional, tissue-based
[15] = system: Escherichia coli; assay: Displacement of BODIPY-cadaverine from Escherichia coli O111:B4 lipopolysaccharide
[16] = system: HEK-Blue; assay: Inhibition of IL-1-beta-stimulated NF-kappaB induction in HEK-Blue cells assessed as expression of secreted alkaline phosphatase by seAP assay; type: functional, cell-based; settings: Homo sapiens
[17] = system: HEK-Blue; assay: Inhibition of phorbol esters-stimulated NF-kappaB induction in HEK-Blue cells assessed as expression of secreted alkaline phosphatase by seAP assay; type: functional, cell-based; settings: Homo sapiens
[18] = system: HEK-Blue; assay: Inhibition of TNF-alpha-stimulated NF-kappaB induction in HEK-Blue cells assessed as expression of secreted alkaline phosphatase by seAP assay; type: functional, cell-based; settings: Homo sapiens
[19] = system: Mus musculus; assay: Increase in survivality of sc dosed D-galactosamine-primed CF1 mouse model of LPS-induced lethal septic shock administered 1 hr prior to LPS challenge; type: functional, organism-based
[20] = system: Mus musculus; assay: Inhibition of LPS-induced cytokines levels in D-galactosamine-primed mouse model of at 4 mg/kg, sc; type: functional, organism-based; parameters: dose 4 mg/kg
[21] = system: Mus musculus; assay: Toxicity in mouse in mouse assessed as polyamine level in plasma at 40 mg/kg/day, sc for 5 days relative to control; type: organism-based; parameters: route subcutaneous; settings: in vivo, 120 h
[22] = system: Mus musculus; assay: Increase in survivality of ip dosed D-galactosamine-primed mouse model of LPS-induced lethal septic shock administered as precomplex with LPS; type: functional, organism-based
[23] = system: Escherichia coli; assay: Ex vivo inhibition of Escherichia coli lipopolysaccharide-stimulated T180/Y182 dual phosphorylation of p38 MAPK in human whole blood by flow cytometry; type: tissue-based

POLYMYXIN B [listing 1 of 2 here]
IC50 ([1]; j774.a1): 27 nM
IC50 ([2]; hek-blue): 30 nM
IC50 [3]: 11000 nM
IC50 ([4]; hek-blue): 562 nM
IC50 ([5]; hek-blue): 30 nM
IC50 ([6]; hek-blue): 30 nM
IC50 ([7]; hek-blue): 32 nM
IC50 ([8]; hek-blue): 30 nM
IC50 [9]: 11000 nM
IC50 [10]: 11000 nM

CCCCCCCCCCCCCCCCNCCCNCCCNCCCCNCCCN.O=C(O)C(F)(F)F
IC50 ([1]; Mus musculus, J774.A1, 16 h): 21 nM
IC50 ([2]; Pseudomonas aeruginosa, HEK-Blue): 30 nM
IC50 ([3]; Escherichia coli, Blood): 3000 nM
IC50 ([4]; Salmonella enterica, HEK-Blue): 82 nM
Activity [11]: inactive
Activity [12]: Non-toxic
IC50 ([5]; Vibrio cholerae, HEK-Blue): 30 nM
Activity [13]: inactive
IC50 ([6]; Escherichia coli, HEK-Blue): 30 nM
Activity [14]: inactive
ED50 [15]: 1200 nM
Activity [16]: inactive
IC50 ([7]; HEK-Blue): 32 nM
Activity [17]: inactive
Activity [18]: inactive
Activity [19]: Dose-dependent effect
IC50 ([8]; Escherichia coli, HEK-Blue): 30 nM
IC50 ([9]; Escherichia coli, Blood): 3000 nM
Activity [20]: Active
Activity [21]: Non-toxic
IC50 ([10]; Escherichia coli, Blood): 3000 nM
Activity [22]: Dose-dependent effect

POLYMYXIN B [listing 2 of 2 here]
Activity [13]: inactive
Activity [14]: inactive
ED50 [15]: 1310 nM
Activity [23]: Dose-dependent effect
Activity [16]: inactive
Activity [17]: inactive
Activity [18]: inactive
Activity [19]: Dose-dependent effect
Activity [22]: Dose-dependent effect
